target: T1, human GLP-1 (Homo sapiens, UniProt P43220); experiment: h-GLP-1 activity assay (Cisbio cAMP Gs dynamic kit, HTRF); type: cell-based; conditions: HEK293 cells with stable expression of human GLP-1, relative EC50, 10 nM human GLP-1 = 100% response
T1 construct: expressed in transfected cells
Description: Human GLP-1 agonizing activity was detected in HEK293 cells with stable expression of human GLP-1 by Cisbio cAMP Gs dynamic kit (Catalog #62AM4PEC) according to manufacturer's protocol. Briefly, cells were collected and resuspended in assay buffer containing 0.1% BSA and 0.5 mM of IBMX at concentration to 2.5×10^5 cells/mL. Two μL 5× compound solution and 8 μL cell suspension were added to each well of low-volume 384 white assay plate. After 30 min incubation at 37° C., 5 μL cAMP-d2 working solution and 5 μL anti-cAMP antibody-cryptate were added to each well, and incubate at room temperature for 1 hr. Series dilution of cAMP was used as standard. Human GLP-1 (7-37) was used as positive control and 10 nM human GLP-1 was set as 100% response. HTRF signals were read at 665 and 615 nm with EnVision plate reader and calculated cAMP concentration by intrapolation to the standard curve. The EC50 value of the tested compounds was calculated by fitting the dose response curve using a 4-parameter non-linear regression routine and relative EC50 was presented in Table S.

T1 sequence (P43220 24-463): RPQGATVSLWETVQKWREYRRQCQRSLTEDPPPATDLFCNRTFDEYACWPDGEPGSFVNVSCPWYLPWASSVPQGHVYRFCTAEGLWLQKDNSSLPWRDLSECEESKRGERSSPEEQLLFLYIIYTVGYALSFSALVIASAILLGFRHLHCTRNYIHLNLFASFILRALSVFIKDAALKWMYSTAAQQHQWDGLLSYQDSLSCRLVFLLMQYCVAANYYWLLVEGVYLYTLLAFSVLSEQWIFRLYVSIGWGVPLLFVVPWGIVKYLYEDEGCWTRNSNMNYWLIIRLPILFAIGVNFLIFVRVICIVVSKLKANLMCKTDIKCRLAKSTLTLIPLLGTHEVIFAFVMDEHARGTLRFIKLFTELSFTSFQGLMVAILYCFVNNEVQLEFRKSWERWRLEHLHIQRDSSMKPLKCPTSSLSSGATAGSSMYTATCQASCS

| EC50 | Compound |
| --- | --- |
| > 100 nM | CN1C(=O)C(c2ccc(Cl)cc2F)Oc2c(C3CCN(Cc4nc5ccc(C(=O)O)cc5n4C[C@@H]4CCO4)CC3)cccc21 (mixture of isomers) [Compound 105, 2-((4-(2-(4-chloro-2-fluorophenyl)-4-methyl-3-oxo-3,4-dihydro-2H-benzo[b][1,4]oxazin-8-yl)piperidin-1-yl)methyl)-1-(((S)-oxetan-2-yl)methyl)-1H-benzo[d]imidazole-6-carboxylic acid] |
| < 20 nM | CC1(c2c(F)cc(Cl)cc2F)Oc2cccc(C3=CCC(Cc4nc5ccc(C(=O)O)cc5n4C[C@@H]4CCO4)OC3)c2O1 (mixture of isomers) [Compound 109, 2-((5-(2-(4-chloro-2,6-difluorophenyl)-2-methylbenzo[d][1,3]dioxol-4-yl)-3,6-dihydro-2H-pyran-2-yl)methyl)-1-(((S)-oxetan-2-yl)methyl)-1H-benzo[d]imidazole-6-carboxylic acid] |
| > 100 nM | C[C@@]1(c2ccc(Cl)cc2F)Oc2cccc(-c3ccc(Cc4nc5ccc(C(=O)O)cc5n4C[C@@H]4CCO4)cc3)c2O1 (single isomer, unassigned) [Compound 3] |
| > 100 nM | C[C@@]1(c2ccc(Cl)cc2F)Oc2cccc(-c3ccc(Cc4nc5ccc(C(=O)O)cc5n4C[C@@H]4CCO4)nc3)c2O1 (single isomer, unassigned) [Compound 4] |
| < 20 nM | C[C@]1(c2ccc(Cl)cc2F)Oc2cccc(-c3ccc(Cc4nc5ccc(C(=O)O)cc5n4C[C@@H]4CCO4)nc3)c2O1 (single isomer, unassigned) [Compound 18] |
| < 20 nM | C[C@@]1(c2ccc(Cl)cc2F)Oc2cccc(C3CCN(Cc4nc5ccc(C(=O)NS(=O)(=O)C6CC6)cc5n4C[C@@H]4CCO4)CC3)c2O1 (single isomer, unassigned) [Compound 24] |
| > 100 nM | O=C(O)c1ccc2nc(C[C@@H]3CC[C@@H](c4cccc(OCc5ccc(Cl)cc5F)n4)CO3)n(Cc3cncs3)c2c1 (single isomer, unassigned) [Compound 29] |
| < 20 nM | N#Cc1ccc(COc2cccc([C@H]3CC[C@H](Cc4nc5ccc(C(=O)O)cc5n4C[C@@H]4CCO4)OC3)n2)c(F)c1 (single isomer, unassigned) [Compound 30] |
| < 20 nM | N#Cc1ccc(COc2cccc([C@@H]3CC[C@@H](Cc4nc5ccc(C(=O)O)cc5n4C[C@@H]4CCO4)OC3)n2)c(F)c1 (single isomer, unassigned) [Compound 31] |
| < 20 nM | N#Cc1ccc(COc2cccc([C@@H]3CC[C@H](Cc4nc5ccc(C(=O)O)cc5n4C[C@@H]4CCO4)OC3)n2)c(F)c1 (single isomer, unassigned) [Compound 32] |
| < 20 nM | N#Cc1ccc(COc2cccc([C@H]3CC[C@@H](Cc4nc5ccc(C(=O)O)cc5n4C[C@@H]4CCO4)OC3)n2)c(F)c1 (single isomer, unassigned) [Compound 33] |
| < 20 nM | C[C@@]1(c2ccc(Cl)cc2F)Oc2cccc(C3CCN(Cc4nc5ccc(-c6noc(=O)[nH]6)cc5n4C[C@@H]4CCO4)CC3)c2O1 (single isomer, unassigned) [Compound 37] |
| < 20 nM | C[C@]1(c2ccc(Cl)cn2)Oc2cccc(-c3ccc(Cc4nc5ccc(C(=O)O)cc5n4C[C@@H]4CCO4)cc3)c2O1 (single isomer, unassigned) [Compound 40] |
| > 100 nM | C[C@@]1(c2ccc(Cl)cn2)Oc2cccc(-c3ccc(Cc4nc5ccc(C(=O)O)cc5n4C[C@@H]4CCO4)cc3)c2O1 (single isomer, unassigned) [Compound 41] |
| < 20 nM | C[C@@]1(c2ccc(Cl)cn2)Oc2cccc(C34CCN(Cc5nc6ccc(C(=O)O)cc6n5C[C@@H]5CCO5)CC3C4)c2O1 (single isomer, unassigned) [Compound 72] |
| > 100 nM | C[C@@]1(c2ccc(Cl)cn2)Oc2cccc(N3CC4C(Cc5nc6ccc(C(=O)O)cc6n5C[C@@H]5CCO5)C4C3)c2O1 (single isomer, unassigned) [Compound 73] |
| > 100 nM | C[C@@]1(c2ccc(Cl)cn2)Oc2cccc(C3CC4CC3CN4Cc3nc4ccc(C(=O)O)cc4n3C[C@@H]3CCO3)c2O1 (single isomer, unassigned) [Compound 74] |
| > 100 nM | C[C@@]1(c2ccc(Cl)cn2)Oc2cccc(C34COC(Cc5nc6ccc(C(=O)O)cc6n5C[C@@H]5CCO5)CC3C4)c2O1 (single isomer, unassigned) [Compound 75] |
| < 20 nM | C[C@@]1(c2ccc(Cl)cn2)Oc2cccc(C3CCN(Cc4nc5ccc(C(=O)O)cc5n4C[C@@H]4CCO4)CC3(F)F)c2O1 (single isomer, unassigned) [Compound 76] |
| < 20 nM | C[C@@]1(c2ccc(Cl)cn2)Oc2cccc(N3CC=C(Cc4nc5ccc(C(=O)O)cc5n4C[C@@H]4CCO4)CC3)c2O1 (single isomer, unassigned) [Compound 77] |

| EC50 | Compound |
| --- | --- |
| > 100 nM | C[C@@]1(c2ccc(Cl)cn2)Oc2cccc(C3=CC[C@@H](Cc4nc5ccc(C(=O)O)cc5n4C[C@@H]4CCO4)OC3)c2O1 (single isomer, unassigned) [Compound 79] |
| 20 to 100 nM | C[C@@]1(c2ccc(Cl)cn2)Oc2cccc(C3(F)CCN(Cc4nc5ccc(C(=O)O)cc5n4C[C@@H]4CCO4)CC3)c2O1 (single isomer, unassigned) [Compound 83] |
| 20 to 100 nM | C[C@@]1(c2ccc(Cl)cn2)Oc2cccc(C3C4CN(Cc5nc6ccc(C(=O)O)cc6n5C[C@@H]5CCO5)CC43)c2O1 (single isomer, unassigned) [Compound 85] |
| 20 to 100 nM | C[C@]1(c2ccc(Cl)cc2F)Oc2cccc(C3=CC[C@@H](Cc4nc5ccc(C(=O)O)cc5n4C[C@@H]4CCO4)OC3)c2O1 (single isomer, unassigned) [Compound 101] |
| > 100 nM | C[C@@]1(c2ccc(Cl)cn2)Oc2cccc([C@H]3CC[C@@H](Cc4nc5ccc(C(=O)O)cc5n4C[C@@H]4CCO4)OC3)c2O1 (single isomer, unassigned) [Compound 102] |
| 20 to 100 nM | C[C@@]1(c2ccc(Cl)cn2)Oc2cccc([C@@H]3CC[C@H](Cc4nc5ccc(C(=O)O)cc5n4C[C@@H]4CCO4)OC3)c2O1 (single isomer, unassigned) [Compound 103] |
| > 100 nM | C[C@@]1(c2ccc(Cl)cc2F)Oc2cccc(C3=CC[C@H](Cc4nc5ccc(C(=O)O)cc5n4C[C@@H]4CCO4)OC3)c2O1 (single isomer, unassigned) [Compound 106] |
| > 100 nM | C[C@]1(c2ccc(Cl)cc2F)Oc2cccc(C3=CC[C@H](Cc4nc5ccc(C(=O)O)cc5n4C[C@@H]4CCO4)OC3)c2O1 (single isomer, unassigned) [Compound 107] |
| < 20 nM | C[C@@]1(c2ccc(C3CC3)cn2)Oc2cccc(C3=CCC(Cc4nc5ccc(C(=O)O)cc5n4C[C@@H]4CCO4)OC3)c2O1 (single isomer, unassigned) [Compound 111] |
| < 20 nM | C[C@]1(c2ccc(Cl)cn2)Oc2cccc(C3=CC[C@H](Cc4nc5ccc(C(=O)O)cc5n4Cc4cncs4)OC3)c2O1 (single isomer, unassigned) [Compound 112] |
| 20 to 100 nM | C[C@]1(c2ccc(Cl)cn2)Oc2cccc(C3=CC[C@@H](Cc4nc5ccc(C(=O)O)cc5n4Cc4cncs4)OC3)c2O1 (single isomer, unassigned) [Compound 113] |
| 20 to 100 nM | C[C@]1(c2ccc(Cl)cn2)Oc2cccc(C3=CC[C@H](Cc4nc5ccc(C(=O)O)cc5n4Cc4cscn4)OC3)c2O1 (single isomer, unassigned) [Compound 114] |
| > 100 nM | C[C@]1(c2ccc(Cl)cn2)Oc2cccc(C3=CC[C@@H](Cc4nc5ccc(C(=O)O)cc5n4Cc4cscn4)OC3)c2O1 (single isomer, unassigned) [Compound 115] |
| < 20 nM | C[C@]1(c2ccc(Cl)cn2)Oc2cccc(C3=CC[C@H](Cc4nc5c(F)cc(C(=O)O)cc5n4Cc4cscn4)OC3)c2O1 (single isomer, unassigned) [Compound 116] |
| > 100 nM | C[C@]1(c2ccc(Cl)cn2)Oc2cccc(C3=CC[C@@H](Cc4nc5c(F)cc(C(=O)O)cc5n4Cc4cscn4)OC3)c2O1 (single isomer, unassigned) [Compound 117] |
| 20 to 100 nM | C[C@]1(c2ccc(Cl)cn2)Oc2cccc(C3=CC[C@@H](Cc4nc5c(F)cc(C(=O)O)cc5n4C[C@@H]4CCO4)OC3)c2O1 (single isomer, unassigned) [Compound 119] |
| < 20 nM | C[C@@]1(c2ccc(C(F)(F)F)cn2)Oc2cccc(C3=CCC(Cc4nc5ccc(C(=O)O)cc5n4C[C@@H]4CCO4)OC3)c2O1 (single isomer, unassigned) [Compound 121] |
| > 100 nM | C[C@]1(c2ccc(C(F)(F)F)cn2)Oc2cccc(C3=CCC(Cc4nc5c(F)cc(C(=O)O)cc5n4C[C@@H]4CCO4)OC3)c2O1 (single isomer, unassigned) [Compound 122] |
| < 20 nM | C[C@@]1(c2ccc(C3CC3)cn2)Oc2cccc(C3=CC[C@H](Cc4nc5c(F)cc(C(=O)O)cc5n4C[C@@H]4CCO4)OC3)c2O1 (single isomer, unassigned) [Compound 123] |
| > 100 nM | N#Cc1ccc(COc2nccc(C34CCC(Cc5nc6ccc(C(=O)O)cc6n5C[C@@H]5CCO5)(CC3)CC4)n2)c(F)c1 [Compound 34, (S)-2-((4-(2-((4-cyano-2-fluorobenzyl)oxy)pyrimidin-4-yl)bicyclo[2.2.2]octan-1-yl)methyl)-1-(oxetan-2-ylmethyl)-1H-benzo[d]imidazole-6-carboxylic acid] |
